Biological target: T1, hURAT1 (Homo sapiens, UniProt Q96S37)
T1 construct: expressed in transfected cells
T1 sequence (Q96S37 1-553): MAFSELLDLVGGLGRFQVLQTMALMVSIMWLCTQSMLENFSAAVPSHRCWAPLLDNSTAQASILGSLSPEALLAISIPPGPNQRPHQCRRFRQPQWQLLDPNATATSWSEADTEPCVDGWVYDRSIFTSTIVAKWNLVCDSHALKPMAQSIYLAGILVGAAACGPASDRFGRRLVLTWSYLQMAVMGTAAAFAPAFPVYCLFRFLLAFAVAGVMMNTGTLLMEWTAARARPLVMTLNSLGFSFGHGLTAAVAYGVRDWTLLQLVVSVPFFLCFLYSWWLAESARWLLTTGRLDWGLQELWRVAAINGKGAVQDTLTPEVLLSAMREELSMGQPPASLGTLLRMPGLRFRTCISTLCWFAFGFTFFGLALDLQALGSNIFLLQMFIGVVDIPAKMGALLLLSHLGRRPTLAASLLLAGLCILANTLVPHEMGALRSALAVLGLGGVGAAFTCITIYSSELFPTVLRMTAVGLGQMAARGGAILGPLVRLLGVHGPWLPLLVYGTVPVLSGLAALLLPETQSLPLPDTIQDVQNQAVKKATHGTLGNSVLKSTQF
Experiment: Inhibition of 14C-uric acid uptake by hURAT1 in HEK293-transfected cells
Assay type: cell-based
Conditions: HEK-293T cells stably expressing hURAT1, 14C-uric acid uptake, 5 min at 37° C.
Protocol: 1. Cell Culture and Inoculation
2) When the cells covered 80% of the culture medium, the culture medium was removed. The cells were washed with PBS once, followed by digestion with pancreatin-EDTA. After detachment, the cells were added with a culture medium, exfoliated by pipetting, and centrifuged for harvesting. The harvested cells were added with a culture medium and mixed well to give a cell suspension.
3) The cell density was adjusted to 3×10^5 cells/mL, transferred into a white-wall, clear-bottom, 96-well cell culture plate with 100 μL/well, and incubated for 12-24 h.
1) A 20 mM stock solution of the compound was prepared with DMSO. Then the stock solution was diluted to a starting concentration of 2 mM with DMSO.
2) The solution was serially 4-fold diluted with DMSO from […] to the 10th concentration on a 96-well plate serving as the 100× plate, and respective quality controls were prepared.
3) The solutions in corresponding wells were 10-fold diluted with Cl-free HBSS buffer on another 96-well plate serving as the 10× plate.
4) Buffer containing 0.1 μCi/mL ^14C-uric acid, at 45 μL/well, and a 10× diluted compound, at 5 μL/well, were added to a third 96-well plate serving as the 1× plate for later use. The concentration of DMSO was 1%.
3. Uptake of ^14C-Uric Acid in Cells Stably Expressing hURAT1
1) The uptake assay was performed after the cultivated cells in 96-well plates adhered.
2) The cells were washed once with pre-heated buffer at 200 μL/well.
3) After the wells were dried, corresponding compounds (50 μL/well) and 0.1 μCi/mL ^14C-uric acid were immediately added.
4) The plate with the compound was incubated in a 37° C. incubator for 5 min.
5) 150 μL of ice-cold buffer was added to each well to terminate the uptake. Each well was washed three times with buffer. The cells were carefully washed to avoid detachment.
6) 50 μL of lysis buffer was added to each well, prior to shaking at 900 rpm on an oscillator for 5 min.
7) 150 μL of scintillation solution (Microint 40) was added to each well before shaking at 900 rpm for 5 min.
8) Finally, the microwell plate was transferred to a MicroBeta Trilux (PerkinElmer Co. Ltd.) for detection.
The data were analyzed and the IC50 of the quality controls and all test compounds on the plates were calculated using XL-fit software.

| IC50 [nM] | SMILES |
| --- | --- |
| < 50 | CCc1nc2ncc(Br)cn2c1C(=O)c1cc(Br)c(O)c(Br)c1 [Example 3, (6-bromo-2-ethylimidazo[1,2-a]pyrimidin-3-yl)(3,5-dibromo-4-hydroxyphenyl)methanone] |
| < 50 | CCc1nc2ncc(C(F)(F)F)cn2c1C(=O)c1cc(Br)c(O)c(Br)c1 [Example 5, (3,5-dibromo-4-hydroxyphenyl)(2-ethyl-6-(trifluoromethyl)imidazo[1,2-a]pyrimidin-3-yl)methanone] |
| < 50 | CCc1nc2ncc(Cl)cn2c1C(=O)c1cc(Br)c(O)c(Br)c1 [Example 6, (6-chloro-2-ethylimidazo[1,2-a]pyrimidin-3-yl)(3,5-dibromo-4-hydroxyphenyl)methanone] |
| 50 to 200 | CCc1nc2cc(C(F)(F)F)ncn2c1C(=O)c1cc(Br)c(O)c(Br)c1 [Example 7, (3,5-dibromo-4-hydroxyphenyl)(2-ethyl-7-(trifluoromethyl)imidazo[1,2-c]pyrimidin-3-yl)methanone] |
| < 50 | CCc1nc2ncccn2c1C(=O)c1cc(Br)c(O)c(Br)c1 [Example 20, 2,6-dibromo-4-([2-ethylimidazo[1,2-a]pyrimidin-3-yl]carbonyl) phenol] |
| < 50 | CCc1nc2cc(Cl)ncn2c1C(=O)c1cc(Br)c(O)c(Br)c1 [Example 21, (7-chloro-2-ethylimidazo[1,2-f]pyrimidin-3-yl)(3,5-dibromo-4-hydroxyphenyl)methanone] |
| 50 to 200 | CCc1nc2ncccn2c1C(=O)c1cc(Br)c(O)c(C(F)(F)F)c1 [Example 23, (3-bromo-4-hydroxy-5-(trifluoromethyl)phenyl)(2-ethylimidazo[1,2-a]pyrimidin-3-yl)methanone] |

| SMILES | IC50 [nM] |
| --- | --- |
| CCc1nc2ncc(F)cn2c1C(=O)c1cc(Br)c(O)c(Br)c1 [Example 4, (3,5-dibromo-4-hydroxyphenyl)(2-ethyl-6-fluoroimidazo[1,2-a]pyrimidin-3-yl)methanone] | < 50 |
| CCn1nc2ccc(F)cc2c1C(=O)c1cc(Br)c(O)c(Br)c1 [Example 9, (3,5-dibromo-4-hydroxyphenyl)(2-ethyl-5-fluoro-2H-indazol-3-yl) methanone] | 50 to 200 |
| CCc1nc2ncc(F)cn2c1C(=O)c1cc(Br)c(O)c(C#N)c1 [Example 14, 3-bromo-5-(2-ethyl-6-fluoroimidazo[1,2-a]pyrimidine-3-carbonyl)-2-hydroxybenzonitrile] | 50 to 200 |
| CCn1nc2ccncc2c1C(=O)c1cc(Br)c(O)c(Br)c1 [Example 16, (3,5-dibromo-4-hydroxyphenyl)(2-ethyl-2H-pyrazolo[4,3-c]pyridin-3-yl)methanone] | < 50 |
| CCc1nc2ncc(F)cn2c1C(=O)c1cc(Br)c(O)c(C(F)(F)F)c1 [Example 18, (3-bromo-4-hydroxy-5-(trifluoromethyl)phenyl)(2-ethyl-6-fluoroimidazo[1,2-a]pyrimidin-3-yl)methanone] | < 50 |
| CCc1nc2ncccn2c1C(=O)c1cc(Br)c(O)c(C#N)c1 [Example 22, 3-bromo-5-(2-ethylimidazo[1,2-a]pyrimidine-3-carbonyl)-2-hydroxybenzonitrile] | 200 to 500 |

Source: patent US11453674B2, “Heterocyclic compound, preparation method and use thereof in medicine” (SUZHOU SINOVENT PHARMACEUTICALS CO., LTD., priority 2019, dated 2022)
